What was measured:
[1] = system: SE-spezifischen IgM- und IgG-PBZ; assay: Plaque test after damage of the immune system by cyclophosphamide (immunorestoration); format: in vivo, CBA-Inzuchtmäuse; details: ZY 150 mg/kg day -1 + 2 mg/kg oral days -2 to +2
Description: Der Nachweis von immunrestaurativen Wirkungen erfolgte nach Schädigung des Immunsystems ebenfalls mittels • Plaque-Test zum Nachweis von SE-spezifischen IgM- und IgG-PBZ sowie durch • Rosettentest.
Aus den Werten wird deutlich, daß die Verbindungen der allgemeinen Formel I einen gut nachweisbaren Effekt auf die Effektor-T-Lymphozyten-abhängige verzögerte Uberempfindlichkeit haben. Kontaktdermatitis-Werte ab 120 (≙ 20 % Steigerung gegenüber der Kontrolle) bzw. unter 80 werden als Nachweis eines stimulatorischen bzw. suppressorischen Effektes angesehen. Antikörpertiter-Differenzen von >+1 bzw. <-1 verdeutlichen den stimulatorischen bzw. suppressorischen Effekt der Substanzen auf die humorale Immunantwort. 2. Untersuchungen zur immunstimulierenden Wirkung • 2.1 Plaque-Test zum Nachweis von SE-spezifischen IgM- und IgG-PBZ Zur Prüfung immunstimulierender Effekte wurde u. a. auch der Einfluß von Verbindungen der allgemeinen Formel I auf die humorale Immunantwort an Mäusen des Inzuchtstammes CBA und mittels Hämolyse-Plaque-Test (HPT) untersucht. Diese Technik erlaubt die quantitative und getrennte Erfassung IgM- und IgG-Antikörper produzierender Zellen (= Plaque bildende Zellen; PBZ). Die Immunisierung mit Schaferythrozyten (SE) erfolgte am Tag 0, die Substanzapplikation (Tagesdosis 1.10^-5 mol/kg Körpermasse; peroral) an den Tagen -1 bis +3 (zur Erfassung der IgM-PBZ) bzw. an den Tagen +1 bis +5 (zur Erfassung der IgG-PBZ). • 2.2 Ergebnisse: Durch tägliche und über 5 Tage gehende Gabe von 2,0 mg der Verbindung gemäß Beispiel 1 pro kg Körpermasse konnte die Zahl der IgM-PBZ auf einen Durchschnittswert von 352 % im Vergleich zur Kontrolle (100 %) gesteigert werden. Die gleiche Form der Behandlung führte zu einer Erhöhung der IgG-PBZ auf 497 % (Kontrolle: 100 %). In beiden Fällen erwies sich die Differenz zur Kontrolle im t-Test mit p < 0,001 als signifikant. Es wird deutlich, daß eine über 5 Tage gehende tägliche Behandlung mit der Verbindung gemäß Beispiel 1 bei der CBA-Maus eine hochsignifikante Steigerung SE-spezifischer IgM- und IgG-PBZ hervorruft. • 2.3 Rosettentest (SE-spezifische Rosetten) Nach der BURNET'schen Theorie tragen die Lymphozyten auf ihrer Oberfläche Immunglobulin-Rezeptoren, die gegen ein bestimmtes Antigen gerichtet und durch eine Reaktion mit dem spezifischen Antigen nachweisbar sind. Die Bestimmung der Anzahl an rosettenbildenden Zellen (RBZ) kann als Maß für die Stärke einer anlaufenden Immunreaktion dienen und folgend auch Effekte im Sinne einer Suppression oder Stimulierung zellproliferativer Prozesse wiedergeben. Drei Tage nach der intravenösen Immunisierung mit 2·10^5 Schaferythrozyten (SE) in 0,2 ml physiologischer Kochsalzlösung wurden die Versuchstiere durch Überstrecken getötet, die Milz entnommen und unter Zugabe von Parker-Medium (pH 7,4) durch Müller-Gaze gerieben. Die Arbeiten zur Gewinnung der Zellsuspension wurden im Eiswasserbad (ca 0 bis 4 °C) durchgeführt. In einer Zählkammer nach Neubauer erfolgte die Bestimmung der Zelldichte, und anschließend wurde die für alle Versuchsansätze konstante Zellzahl von 1·10^7 kernhaltigen Zellen (KHZ)/ml Medium eingestellt. 0,9 ml der Milzzellsuspension (1·10^7 KHZ/ml) wurden dann mit 0,1 ml einer 5 %igen gewaschenen Schaferythrozytensuspension versetzt und 24 Stunden bei 4 °C inkubiert. […] 3. Untersuchungen zu immunrestaurativen Effekten 3.1 Der Nachweis der immunrestaurativen Wirksamkeit von Verbindungen der allgemeinen Formel I wurde u. a. dadurch geführt,daß das Immunsystem der Versuchstiere (CBA-Inzuchtmäuse) durch Chemotherapie (Zyklophosphamid, Carageenan, Iloprost) bzw. Bestrahlung geschädigt wurde. Die Prüfung erfolgte u. a. mittels folgender oben erläuterter Techniken: • Plaque-Test zum Nachweis von SE-spezifischen IgM- und IgG-PBZ, • Rosettentest. […]

[2] = system: MDBK (bovine Nierenzellen-Permanentzellinie); assay: Cell tolerance, microscopic reading; format: cell-based; parameters: key: 0̸: Am 5. Tag der mikroskopischen Ablesung keine morphologischen Veränderungen der Zellen.; ++++: Komplette Veränderungen der Zellschicht in Form von Abrundung, Granulierung und Ablösen der Zellen von der Glaswand.; +++: Analoge Veränderungen bei 3/4 des Zellrasens.; ++: Analoge Veränderungen bei 1/2 des Zellrasens.; +: Analoge Veränderungen bei 1/4 des Zellrasens; details: MDKB, reading day 5
Description: (§1) 0̸ = Am 5. Tag der mikroskopischen Ablesung keine morphologischen Veränderungen der Zellen. ++++ = Komplette Veränderungen der Zellschicht in Form von Abrundung, Granulierung und Ablösen der Zellen von der Glaswand. +++ = Analoge Veränderungen bei 3/4 des Zellrasens. ++ = Analoge Veränderungen bei 1/2 des Zellrasens. + = Analoge Veränderungen bei 1/4 des Zellrasens.

[3] = system: RH (humane Nierenzellen-Permanentzellinie); assay: Cell tolerance, microscopic reading; format: cell-based; parameters: key: 0̸: Am 5. Tag der mikroskopischen Ablesung keine morphologischen Veränderungen der Zellen.; ++++: Komplette Veränderungen der Zellschicht in Form von Abrundung, Granulierung und Ablösen der Zellen von der Glaswand.; +++: Analoge Veränderungen bei 3/4 des Zellrasens.; ++: Analoge Veränderungen bei 1/2 des Zellrasens.; +: Analoge Veränderungen bei 1/4 des Zellrasens; details: reading day 5
Description: as §1

[4] = 125 µmol/l in maintenance medium
[5] = 250 µmol/l in maintenance medium
[6] = 500 µmol/l in maintenance medium
[7] = 1000 µmol/l in maintenance medium
[8] = 62,5 µmol/l in maintenance medium

Structure (SMILES): O=c1[nH]c2ccccc2c(=O)n1CCS [Beispiel 1, 3-(2-Mercaptoethyl)-chinazolin-2,4(1H,3H)-dion]
- IgM-PBZ/10^6 ([1]; test day + 3): 31,7 ± 26,6 /10^6
- IgM-PBZ/10^6 ([1]; test day + 4): 59,8 ± 26,6 /10^6
- IgM-PBZ/10^6 ([1]; test day + 5, p <0,05): 125,2 ± 32,7 /10^6
- IgM-PBZ/10^6 ([1]; test day + 6): 47,8 ± 31,2 /10^6
- IgG-PBZ/10^6 Milzzellen ([1]; test day + 6, p <0,05): 88,3 ± 24,8 /10^6 Milzzellen
- IgG-PBZ/10^6 Milzzellen ([1]; test day + 7, p <0,01): 128,3 ± 28,6 /10^6 Milzzellen
- IgG-PBZ/10^6 Milzzellen ([1]; test day + 8): 58,3 ± 43,6 /10^6 Milzzellen
- Zellverträglichkeit [2, 4]: 0̸
- Zellverträglichkeit [2, 5]: 0̸
- Zellverträglichkeit [2, 6]: ++
- Zellverträglichkeit [2, 7]: ++++
- Zellverträglichkeit [2, 8]: 0̸
- Zellverträglichkeit [3, 4]: 0̸
- Zellverträglichkeit [3, 5]: 0̸
- Zellverträglichkeit [3, 6]: ++
- Zellverträglichkeit [3, 7]: +++
- Zellverträglichkeit [3, 8]: 0̸
